Here are results for four molecules from publication PMC3220703, “Effects of DPP-4 Inhibitors on the Heart in a Rat Model of Uremic Cardiomyopathy” (PLoS ONE, 2011).

One data set has as its system 5/6N rats. The data set is described as follows: Markers of kidney function before and after drug administration in 5/6N rats. In kind it is in vivo, rat. The settings on record: for effect on concentration of osteopontin: 4 days of treatment vs pre-treatment; for Osteopontin: mean±SEM. Here is the method: Creatinine concentration was measured by the Jaffe colorimetric method. Creatinine clearance was estimated as described previously.
For each parameter, the log10-transformed values were analyzed separately using an ANOVA for repeated measurements with factors for experimental group and time as fixed effects. […] These statistical analyses were carried out with the software product SAS (SAS Institute, Cary, NC USA), version 9.2.

Data set [1] is described as follows: Pharmacokinetics: plasma AUC(0-∞) in sham-operated and 5/6N rats (HPLC-MS/MS). The class given is in vivo, rat. The settings on record: day 4, mean±SEM; for AUC(0-inf): rat, plasma, po. Here is the method:
Sham-operated rats were divided into four control groups (N = 5–6 rats per group) in the same manner.
Chromatography for all assays was achieved on a Phenomenex Luna Phenyl-Hexyl 100A, 3 µm, 50×2 mm analytical HPLC column with gradient elution. The analytes were detected and quantified by HPLC-MS/MS using electrospray ionization in the positive ion mode.
Pharmacokinetic analysis was performed using non-compartmental methods with ToxKin V 3.5 (LogicaCMG ITS AG, Switzerland). The linear trapezoidal rule was used for AUC calculation. The terminal half-life (t(1/2)) was calculated as t(1/2) = ln2/λ(z) with the terminal elimination rate constant λ(z) as slope of the logarithmic-linear regression line lnC(t) = lnC(0 h) – λ(z) × t of two or three data points in the terminal phase. Extrapolated AUC(rest, tz-∞) was calculated according to Aronson et al, using the calculated concentration and time (t(z)) of the last measurable data point.

The conditions of data set [2]: cited from earlier work; for main elimination route: in words.
A further data set concerns active GLP-1. The data set is described as follows: Plasma active GLP-1 levels after linagliptin. In kind it is in vivo, rat. The source says:
Figure 5 Active GLP-1 levels in uremic vs sham animals. […] Following the last dose, plasma was taken after the time points indicated and active GLP-1 was detected. Values are given as mean ± SEM. N = 5 sham-operated, and 8-12 rats for 5/6N.
Active (uncleaved, 7–36 amide or 7–37) GLP-1 was detected using the commercially available Multi-Array Assay System (K150JWC) from Meso Scale Discovery following the instructions of the supplier.

A further data set concerns uremic rat heart. The data set is described as follows: Quantitative real-time PCR of BNP and fibrosis markers in uremic rat heart. The class given is in vivo. The following applies: 7 µmol/kg, 4 days; 5/6N rats; vs untreated 5/6N; in words. Here is the method: Total RNA was extracted from 50 mg snap-frozen tissue by homogenization in peqGold Trifast reagent (Peqlab). Residual genomic DNA was removed with Turbo DNAse (Applied Biosystems). The RNA concentration and purity were assayed by spectrophotometry. First-strand cDNA synthesis was performed with random hexamer primer and 1 µg RNA using High Capacity cDNA Reverse Transcription Kit (Applied Biosystems) according to the manufacturer's instruction. (For further detail see Vinon-Zellweger et al.)
Sequences from the Ensemble database and the online available Primer3 software were used to create specific, intron-spanning primers for the target genes. […] Synthesized primers were obtained from Sigma-Aldrich®.
A total of 10 ng cDNA in 5 µl was normally used as template for amplification. An additional 0.5 µl of each primer (5 pmol) and 12.5 µl of Power SYBR Green PCR Master Mix (Applied Biosystems) were added and diluted with water to a volume of 25 µl. The PCR was performed on an Mx3000P thermal cycler (Stratagene). Reaction conditions were 95°C for 10 min, 40 cycles at 95°C for 15 sec, and 60°C for 60 sec, followed by an examination of the melting curve. All samples were analyzed in triplicate. The amplification efficiency of every reaction was checked with the linear regression method. Expression of the gene of interest was divided by the housekeeping gene, glyceraldehyde-3-phosphate dehydrogenase, and expressed as fold-change compared with the corresponding sham-operated rats group.
For orientation: Real-time PCR tracks product formation cycle by cycle.

[3] abbreviates: after (4 days + 72 h) administration, 7.0 µmol/kg.
[4] abbreviates: vs pre-treatment values, in words.
The mark [5] stands for this setting: 7 umol/kg, 5/6N rats, 7 µmol/kg oral once daily.
Where [6] appears, read: 7 umol/kg, sham-operated rats, 7 µmol/kg oral once daily.
[7] abbreviates: before drug administration, 7.0 µmol/kg group.

For orientation: AUC(0-inf) means the area under the concentration-time curve extrapolated to infinity. Low readings indicate low exposure, high ones high exposure. As to `Cn1c(=O)cc(N2CCC[C@@H](N)C2)n(Cc2ccccc2C#N)c1=O` [Alogliptin, alogliptin], the “effect on concentration of osteopontin” value in the data set with 5/6N rats (7.0 µmol/kg, in words) was “significantly reduced”. Besides, the Osteopontin in the data set on 5/6N rats (setting [3]) was 39.1 ± 8.8 ng/mL. The “change of cystatin C following 4 days of treatment” value in the data set on 5/6N rats (setting [4]) is given as “significantly increased”. For the same molecule, the AUC(0-inf) came to 2.44 ± 0.167 µM·h in data set [1] (setting [5]) and 1.77 ± 0.226 µM·h in data set [1] (setting [6]).
As for `N#C[C@@H]1CCCN1C(=O)CNC12CC3CC(CC(O)(C3)C1)C2` [vildagliptin], in data set [2], the main elimination route result is recorded as “via the kidney”.
On to `N[C@@H](CC(=O)N1CCn2c(nnc2C(F)(F)F)C1)Cc1cc(F)c(F)cc1F` [Sitagliptin, sitagliptin], for which the main elimination route entry in data set [2] is “via the kidney”. In addition, the “effect on concentration of osteopontin” value in the data set on 5/6N rats (7.0 µmol/kg, in words) is “significantly reduced”. Besides, the Osteopontin in the data set with 5/6N rats (setting [3]) turned out to be 33.4 ± 2.4 ng/mL; with 5/6N rats (setting [7]), 48.5 ± 4.4 ng/mL. Also, the “change of cystatin C following 4 days of treatment” value in the data set with 5/6N rats (setting [4]) is listed as “unchanged”. Further, the “change of β2-microglobulin concentration following 4 days of treatment” value in the data set with 5/6N rats (setting [4]) was “increasing the concentration of β2-microglobulin”. Besides, the figures for the AUC(0-inf) in data set [1] (setting [5]) and in data set [1] (setting [6]) were 6.24 ± 0.423 µM·h and 3.69 ± 0.103 µM·h, respectively.
As to `CC#CCn1c(N2CCC[C@@H](N)C2)nc2c1c(=O)n(Cc1nc(C)c3ccccc3n1)c(=O)n2C` [Linagliptin, linagliptin], the “eliminated via the urine” value in data set [2] (oral) is 1–5%. Besides, the “elimination via the bile, share of the orally administered dose” value in data set [2] (oral) is “approximately 85%”. For the same molecule, the GLP-1 AUC in the data set with active GLP-1 (7 μmol/kg, 5/6N) stood at 201 ng·h/L; with active GLP-1 (7 μmol/kg, sham), 108 ng·h/L; in the data set with active GLP-1 (5/6N rats, linagliptin 7 µmol/kg daily for 4 days), 201.0 ng·h/L; in the data set on active GLP-1 (sham rats, linagliptin 7 µmol/kg daily for 4 days), 108.6 ng·h/L. In the data set on active GLP-1 (linagliptin 7 µmol/kg, p = 0.01), the “increase in GLP-1 in 5/6N rats compared with sham-treated rats” value is 2 fold. In addition, the “effect on concentration of osteopontin” value in the data set with 5/6N rats (0.5 µmol/kg, p<0.001, in words) is “significantly reduced”; in the data set with 5/6N rats (7.0 µmol/kg, in words), “did not reach statistical significance”. Besides, the Osteopontin in the data set with 5/6N rats (after (4 days + 72 h) administration, 0.5 µmol/kg) was determined as 48.1 ± 3.8 ng/mL; in the data set on 5/6N rats (setting [3]) it was 49.4 ± 10.7 ng/mL; with 5/6N rats (before drug administration, 0.5 µmol/kg group) it was 70.9 ± 4.7 ng/mL; with 5/6N rats (setting [7]) it was 54.2 ± 10.0 ng/mL. Moreover, in the data set with 5/6N rats (setting [4]), the “change of cystatin C following 4 days of treatment” value is recorded as “trend toward decreasing”. In addition, the “AUC(0-∞)” value is 0.7482 ± 0.07452 µM·h in data set [1] (5/6N rats, 7 µmol/kg oral once daily) and 1.252 ± 0.3788 µM·h in data set [1] (sham-operated rats, 7 µmol/kg oral once daily). The area under the curve AUC(0-inf) in data set [1] (0.5 umol/kg, 5/6N rats, 0.5 µmol/kg oral once daily) was determined as 0.258 ± 0.0214 µM·h; in data set [1] (0.5 umol/kg, sham-operated rats, 0.5 µmol/kg oral once daily), 0.267 ± 0.0289 µM·h; in data set [1] (setting [5]), 1.25 ± 0.373 µM·h; in data set [1] (setting [6]), 0.748 ± 0.0745 µM·h. The “mRNA expression of BNP in uremic rat heart” value in the data set with uremic rat heart was “significantly reduced”. Further, in the data set on uremic rat heart, the “mRNA expression of Col1α1 in uremic rat heart” value is listed as “significantly inhibited”. Further, the “mRNA expression of Col3α1 in uremic rat heart” value with uremic rat heart is on record as “significantly inhibited”. The “mRNA expression of TGF-β1 in uremic rat heart” value in the data set on uremic rat heart is on record as “significantly inhibited”. Moreover, the “mRNA expression of TIMP-1 in uremic rat heart” value in the data set with uremic rat heart is listed as “significantly inhibited”.
